Measured values: PubChem BioAssay AID179 (DTP/NCI, 2004)
Calls of active or inactive are those of the source.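 Rule for the calls: active = compounds giving half or more protection of infected cells from virus-caused growth loss, again on retest; inactive = the rest.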

Test system: CEM cells HIV-1 protection, formazan growth assay
Assay: NCI AIDS Antiviral Assay
Settings: for IC50: measured here: growth of uninfected CEM cells
In short: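 Five concentrations of each compound were applied to infected and uninfected human CEM cells. Protection from HIV-1 was judged from growth measured with a soluble formazan assay.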

SMILES | EC50 [µM] | IC50 [µM] | outcome
CC(CC=O)Nc1nn2c(=O)c3ccccc3nc2s1 (centres undefined) | > 200 | 132 | –
Cc1ccc(S(=O)(=O)N=NC=C2c3ccccc3N(O)c3ccccc32)cc1 | – | – | inactive
CC(C)c1ccc2c(c1)CCC1C2(C)CCCC1(C)C(O)c1ccccc1 (centres undefined) | > 200 | 38 | –
O=C(/C=C/c1ccc(O)c(O)c1)CC(=O)/C=C/c1ccc(O)c(O)c1 | > 200 | 10.2 | –
C(=C\c1ccccc1)/C[P+](c1ccccc1)(c1ccccc1)c1ccccc1 | > 200 | 0.525 | –
O=CC[C@H]1C=Cc2ccccc2[C@@]12C=CC(=O)CC2 | > 28.8 | 21.9 | –
Cc1cc(C)c(C(=O)c2c(C)cccc2C(=O)O)c(C)c1 | > 200 | > 200 | –
CN(C)c1nc(Oc2nc(N(C)C)nc(N(C)C)n2)nc(N(C)C)n1 | > 724 | 17.4 | –
Cc1ccnc(SC(F)(F)c2nc3ccccc3o2)n1 | 0.263 | 2 | –
CC1=NNC(=O)C1C1(C(=O)O)CC(c2c[nH]c3ccccc23)=NC(=S)N1 (centres undefined) | > 100 | 69.2 | –
COC(=O)c1nc(N)[nH]c(=O)c1CCCCCc1c(C(=O)OC)nc(N)[nH]c1=O | > 17.8 | > 17.8 | –
CCOc1ccc(Nc2nc(C)c(C(=O)CC(=O)C(=O)Nc3ccc(C(C)C)cc3C(C)C)s2)cc1 | > 200 | 105 | –
Cc1c(C(=O)N(CCO)CCO)[n+](=O)c2ccccc2n1[O-] | > 575 | > 575 | –
CC1CC(C)(C)N/C(=C/C(=O)N2Cc3cc4ccccc4nc3C2)O1 (centres undefined) | > 200 | > 200 | –
CC1=CCCC2C(C1)C(=O)CC(C)C2(C)CC/C(=C/CO)CO (centres undefined) | – | – | inactive
CC=C(c1cc(Br)c(OC)c(C(=O)OC)c1)c1cc(Br)c(OC)c(C(=O)OC)c1 | > 200 | 13.5 | –
CCSc1c2ccccc2nc2c(OC)ccc(OC)c12 | – | – | inactive
OC1c2ccccc2CC12Cc1ccccc1C2 (centres undefined) | > 200 | 145 | –
CCOc1ccc2nc3nc(=O)[nH]c(C)c3c(NC(C)(CO)CO)c2c1 | > 200 | > 200 | –
CC1=CCC2CC1C(C(=O)c1c[nH]c3ccccc13)=NC2(C)C (centres undefined) | > 81.3 | > 81.3 | –
O=C(O)c1cc(O)c2c(c1)C([C@@H]1c3cccc(O)c3C(=O)c3c(O)cc(C(=O)O)cc31)c1cccc(O)c1C2=O (some centres undefined) | > 200 | 31.6 | –
COc1cc([N+](=O)[O-])c(S(=O)(=O)O)cc1-n1nc(-c2ccccc2)n[n+]1-c1cc(S(=O)(=O)[O-])c([N+](=O)[O-])cc1OC | > 100 | > 100 | –
O=C1c2c(O)ccc(O)c2C(=O)c2c(NCCOCCO)ccc(NCCOCCO)c21 | > 200 | 3.55 | –

SMILES | EC50 [µM] | IC50 [µM] | outcome
O=S1(=O)C(c2cccc(F)c2)=C(O)c2cc3ccccc3nc21 | – | – | inactive
CC1CN(Cc2ccccc2)C(=N)S1 (centres undefined) | > 363 | 288 | –
CN(C)c1ccc(/C=C2\Cc3ccccc3C2=O)cc1 | > 14.5 | > 14.5 | –
c1ccc(SC2CCCO2)cc1 (centres undefined) | – | – | inactive
Cc1ccc2[nH]c3[nH]c(=S)[nH]c(=O)c3c2c1 | 22.4 | 162 | –
COC(=O)c1c(C)cccc1/C=C1\Cc2ccc(C)c(C)c2C1=O | > 200 | > 200 | –
Cc1cccc(C)c1NC(=O)CCCC(=O)C1CC(=O)CCC1=O (centres undefined) | > 550 | > 550 | –
C=C(C)c1nc(C#N)c(N)o1 | > 200 | > 200 | –
CSSc1ccccc1 | > 20 | 7.76 | –
COC1(C)C(=O)N2C1N(C(C)=O)CC2(C)C (centres undefined) | > 501 | > 501 | –
COc1ccc(/C=C/C(=O)OCCc2ccccc2)cc1O | > 8.32 | 4.47 | –
CCCCCC[C@H]1CC(=O)C2CCCC[C@@]23CC[C@H](CCl)N13 (some centres undefined) (tested in a mixture with another compound) | > 200 | 105 | –
COC(=O)/C=C(/Sc1nc(Cl)c(Cl)nc1N)C(=O)OC (tested in a mixture with another compound) | > 200 | 2.45 | –
[C-]#[O+].[C-]#[O+].[C-]#[O+].[Cr].c1ccc(P(CC[PH+](CC[PH+](CC[PH+](c2ccccc2)c2ccccc2)c2ccccc2)c2ccccc2)c2ccccc2)cc1 (centres undefined) | > 4.68 | > 4.68 | –
COc1cc(C(=O)OC2CC(C)=CC[C@@]3(C)CC[C@](O)(C(C)C)C23)ccc1O (some centres undefined) | > 200 | 8.51 | –
CCCCN(CC)C(=O)C(=O)Cc1nc2ccc(C(=O)c3ccccc3)cc2[nH]c1=O | > 17.4 | > 17.4 | –
NC1=NNC2(C(=O)N1)c1ccccc1-c1ccccc12 | > 200 | 46.8 | –
CSc1c(C(=O)Nc2ccc(C)cc2)c(N)nn1-c1ccccc1 | > 200 | > 200 | –
NCC1OC(OC2C(CO)OC(OC3C(O)C(N)CC(N)C3OC3OC(CN)C(O)C(O)C3N)C2O)C(N)C(O)C1O (centres undefined) | – | – | inactive
COc1ccc2nccc3c2c1NC(Cl)=C3 | > 200 | 1.58 | –
COc1cc(C(O)C(=O)c2nc3ccc([N+](=O)[O-])cc3[nH]c2=O)ccc1O (centres undefined) | > 251 | > 251 | –
CCOC(=O)C1(O)Nc2ncncc2N(C)C1=O (centres undefined) | > 200 | > 200 | –
